# Source: US20100041089A1, “IMPROVED METHOD FOR DETECTING CHEMICAL […]” (priority 2006, published 2010)
# Test system: yeast genes (expressed mRNA)
# Experiment: DNA chip measurement of expressed mRNA of yeast genes after culture with a toxic chemical substance
# Assay type: cell-based, Saccharomyces cerevisiae S288C
# Method in brief: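 Two-hour exposure of growing S. cerevisiae S288C (YPD, 25° C) to a sublethal toxicant preceded RNA isolation. Fluorescent cDNA was hybridized to a whole-genome array; a treated-to-untreated signal ratio of two or more was taken as significant.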
smiles,measurement,setting,value
"S=C([S-])NCCNC(=S)[S-].[Zn+2] [(11), Zinc N,N′-ethylenebis(dithiocarbamate)]",The level of expressed mRNA in the presence of chemical substance/The level of expressed mRNA in the absence of chemical substance,"yeast gene YKL086W, cultured two hours with substance",0.7
same,The level of expressed mRNA in the presence of chemical substance/The level of expressed mRNA in the absence of chemical substance,"yeast gene YKL151C, cultured two hours with substance",2.3
same,The level of expressed mRNA in the presence of chemical substance/The level of expressed mRNA in the absence of chemical substance,"yeast gene YKL153W, cultured two hours with substance",2.1
same,The level of expressed mRNA in the presence of chemical substance/The level of expressed mRNA in the absence of chemical substance,"yeast gene YKL195W, cultured two hours with substance",1.0
same,The level of expressed mRNA in the presence of chemical substance/The level of expressed mRNA in the absence of chemical substance,yeast gene YKR076W,18.6
same,The level of expressed mRNA in the presence of chemical substance/The level of expressed mRNA in the absence of chemical substance,"yeast gene YKR091W, cultured two hours with substance",1.1
same,The level of expressed mRNA in the presence of chemical substance/The level of expressed mRNA in the absence of chemical substance,yeast gene YLL060C (detoxification protein gene),14.1
same,The level of expressed mRNA in the presence of chemical substance/The level of expressed mRNA in the absence of chemical substance,yeast gene YLL060C (stress protein genes),14.1
same,The level of expressed mRNA in the presence of chemical substance/The level of expressed mRNA in the absence of chemical substance,"yeast gene YLR031W, cultured two hours with substance",0.7
same,The level of expressed mRNA in the presence of chemical substance/The level of expressed mRNA in the absence of chemical substance,"yeast gene YLR054C, cultured two hours with substance",0.7
same,The level of expressed mRNA in the presence of chemical substance/The level of expressed mRNA in the absence of chemical substance,yeast gene YLR142W,3.8
same,The level of expressed mRNA in the presence of chemical substance/The level of expressed mRNA in the absence of chemical substance,"yeast gene YLR149C, cultured two hours with substance",2.8
same,The level of expressed mRNA in the presence of chemical substance/The level of expressed mRNA in the absence of chemical substance,"yeast gene YLR152C, cultured two hours with substance",3.6
same,The level of expressed mRNA in the presence of chemical substance/The level of expressed mRNA in the absence of chemical substance,"yeast gene YLR194C, cultured two hours with substance",1.4
same,The level of expressed mRNA in the presence of chemical substance/The level of expressed mRNA in the absence of chemical substance,"yeast gene YLR205C, cultured two hours with substance",0.4
same,The level of expressed mRNA in the presence of chemical substance/The level of expressed mRNA in the absence of chemical substance,"yeast gene YLR297W, cultured two hours with substance",3.5
same,The level of expressed mRNA in the presence of chemical substance/The level of expressed mRNA in the absence of chemical substance,"yeast gene YLR324W, cultured two hours with substance",0.9
same,The level of expressed mRNA in the presence of chemical substance/The level of expressed mRNA in the absence of chemical substance,"yeast gene YLR346C, cultured two hours with substance",0.5
same,The level of expressed mRNA in the presence of chemical substance/The level of expressed mRNA in the absence of chemical substance,"yeast gene YLR350W, cultured two hours with substance",0.9
same,The level of expressed mRNA in the presence of chemical substance/The level of expressed mRNA in the absence of chemical substance,"yeast gene YLR387C, cultured two hours with substance",0.9
same,The level of expressed mRNA in the presence of chemical substance/The level of expressed mRNA in the absence of chemical substance,"yeast gene YLR460C, cultured two hours with substance",14.3
same,The level of expressed mRNA in the presence of chemical substance/The level of expressed mRNA in the absence of chemical substance,"yeast gene YML117W, cultured two hours with substance",0.8
same,The level of expressed mRNA in the presence of chemical substance/The level of expressed mRNA in the absence of chemical substance,yeast gene YML131W,14.4
same,The level of expressed mRNA in the presence of chemical substance/The level of expressed mRNA in the absence of chemical substance,"yeast gene YMR009W, cultured two hours with substance",2.1
same,The level of expressed mRNA in the presence of chemical substance/The level of expressed mRNA in the absence of chemical substance,"yeast gene YMR067C, cultured two hours with substance",1.1
same,The level of expressed mRNA in the presence of chemical substance/The level of expressed mRNA in the absence of chemical substance,"yeast gene YMR090W, cultured two hours with substance",8.8
same,The level of expressed mRNA in the presence of chemical substance/The level of expressed mRNA in the absence of chemical substance,"yeast gene YMR095C, cultured two hours with substance",2.1
same,The level of expressed mRNA in the presence of chemical substance/The level of expressed mRNA in the absence of chemical substance,"yeast gene YMR097C, cultured two hours with substance",1.5
same,The level of expressed mRNA in the presence of chemical substance/The level of expressed mRNA in the absence of chemical substance,"yeast gene YMR102C, cultured two hours with substance",1.5
same,The level of expressed mRNA in the presence of chemical substance/The level of expressed mRNA in the absence of chemical substance,"yeast gene YMR107W, cultured two hours with substance",3.0
same,The level of expressed mRNA in the presence of chemical substance/The level of expressed mRNA in the absence of chemical substance,"yeast gene YMR140W, cultured two hours with substance",0.7
same,The level of expressed mRNA in the presence of chemical substance/The level of expressed mRNA in the absence of chemical substance,"yeast gene YMR180C, cultured two hours with substance",0.7
same,The level of expressed mRNA in the presence of chemical substance/The level of expressed mRNA in the absence of chemical substance,"yeast gene YMR184W, cultured two hours with substance",1.5
same,The level of expressed mRNA in the presence of chemical substance/The level of expressed mRNA in the absence of chemical substance,"yeast gene YMR191W, cultured two hours with substance",2.3
same,The level of expressed mRNA in the presence of chemical substance/The level of expressed mRNA in the absence of chemical substance,"yeast gene YMR195W, cultured two hours with substance",1.1
same,The level of expressed mRNA in the presence of chemical substance/The level of expressed mRNA in the absence of chemical substance,"yeast gene YMR295C, cultured two hours with substance",1.2
same,The level of expressed mRNA in the presence of chemical substance/The level of expressed mRNA in the absence of chemical substance,"yeast gene YMR316W, cultured two hours with substance",1.5
same,The level of expressed mRNA in the presence of chemical substance/The level of expressed mRNA in the absence of chemical substance,"yeast gene YNL044W, cultured two hours with substance",1.1
same,The level of expressed mRNA in the presence of chemical substance/The level of expressed mRNA in the absence of chemical substance,"yeast gene YNL074C, cultured two hours with substance",1.3
same,The level of expressed mRNA in the presence of chemical substance/The level of expressed mRNA in the absence of chemical substance,"yeast gene YNL092W, cultured two hours with substance",0.7
same,The level of expressed mRNA in the presence of chemical substance/The level of expressed mRNA in the absence of chemical substance,"yeast gene YNL115C, cultured two hours with substance",1.1
same,The level of expressed mRNA in the presence of chemical substance/The level of expressed mRNA in the absence of chemical substance,"yeast gene YNL134C, cultured two hours with substance",5.0
same,The level of expressed mRNA in the presence of chemical substance/The level of expressed mRNA in the absence of chemical substance,"yeast gene YNL156C, cultured two hours with substance",1.4
same,The level of expressed mRNA in the presence of chemical substance/The level of expressed mRNA in the absence of chemical substance,"yeast gene YNL190W, cultured two hours with substance",1.0
same,level of expressed mRNA in the presence of chemical substance / level in the absence of chemical substance,"yeast gene YNL194C, cultured two hours with the chemical substance",17.1
same,The level of expressed mRNA in the presence of chemical substance/The level of expressed mRNA in the absence of chemical substance,"yeast gene YNL195C, cultured two hours with the chemical substance",2.9
same,The level of expressed mRNA in the presence of chemical substance/The level of expressed mRNA in the absence of chemical substance,"yeast gene YNL208W, cultured two hours with substance",2.5
same,The level of expressed mRNA in the presence of chemical substance/The level of expressed mRNA in the absence of chemical substance,"yeast gene YNL234W, cultured two hours with substance",1.3
same,The level of expressed mRNA in the presence of chemical substance/The level of expressed mRNA in the absence of chemical substance,"yeast gene YNL241C, cultured for two hours with substance",3.0
same,The level of expressed mRNA in the presence of chemical substance/The level of expressed mRNA in the absence of chemical substance,"yeast gene YNL281W, cultured two hours with substance",1.6
same,The level of expressed mRNA in the presence of chemical substance/The level of expressed mRNA in the absence of chemical substance,"yeast gene YNL300W, cultured two hours with substance",0.9
same,The level of expressed mRNA in the presence of chemical substance/The level of expressed mRNA in the absence of chemical substance,"yeast gene YNL305C, cultured two hours with substance",1.8
same,The level of expressed mRNA in the presence of chemical substance/The level of expressed mRNA in the absence of chemical substance,"yeast gene YNR064C, cultured two hours with substance",0.7
same,The level of expressed mRNA in the presence of chemical substance/The level of expressed mRNA in the absence of chemical substance,"yeast gene YNR068C, cultured two hours with substance",1.1
same,The level of expressed mRNA in the presence of chemical substance/The level of expressed mRNA in the absence of chemical substance,"yeast gene YOL032W, cultured two hours with substance",1.4
same,The level of expressed mRNA in the presence of chemical substance/The level of expressed mRNA in the absence of chemical substance,"yeast gene YOL036W, cultured two hours with substance",2.2
same,The level of expressed mRNA in the presence of chemical substance/The level of expressed mRNA in the absence of chemical substance,"yeast gene YOL047C, cultured two hours with substance",0.9
same,The level of expressed mRNA in the presence of chemical substance/The level of expressed mRNA in the absence of chemical substance,"yeast gene YOL071W, cultured two hours with substance",4.3
same,The level of expressed mRNA in the presence of chemical substance/The level of expressed mRNA in the absence of chemical substance,"yeast gene YOL082W, cultured two hours with substance",1.6
same,The level of expressed mRNA in the presence of chemical substance/The level of expressed mRNA in the absence of chemical substance,"yeast gene YOL083W, cultured two hours with substance",1.3
same,The level of expressed mRNA in the presence of chemical substance/The level of expressed mRNA in the absence of chemical substance,"yeast gene YOL117W, cultured two hours with substance",1.0
same,The level of expressed mRNA in the presence of chemical substance/The level of expressed mRNA in the absence of chemical substance,"yeast gene YOL131W, cultured two hours with substance",1.4
same,The level of expressed mRNA in the presence of chemical substance/The level of expressed mRNA in the absence of chemical substance,"yeast gene YOL150C, cultured two hours with substance",9.4
same,The level of expressed mRNA in the presence of chemical substance/The level of expressed mRNA in the absence of chemical substance,yeast gene YOL152W,5.9
same,The level of expressed mRNA in the presence of chemical substance/The level of expressed mRNA in the absence of chemical substance,"yeast gene YOL162W, cultured two hours with substance",4.3
same,The level of expressed mRNA in the presence of chemical substance/The level of expressed mRNA in the absence of chemical substance,"yeast gene YOR019W, cultured two hours with substance",1.7
same,The level of expressed mRNA in the presence of chemical substance/The level of expressed mRNA in the absence of chemical substance,"yeast gene YOR178C, cultured two hours with the chemical substance",4.1
same,The level of expressed mRNA in the presence of chemical substance/The level of expressed mRNA in the absence of chemical substance,"yeast gene YOR197W, cultured two hours with substance",1.0
same,The level of expressed mRNA in the presence of chemical substance/The level of expressed mRNA in the absence of chemical substance,"yeast gene YOR215C, cultured two hours with substance",1.6
same,The level of expressed mRNA in the presence of chemical substance/The level of expressed mRNA in the absence of chemical substance,"yeast gene YOR225W, cultured two hours with substance",1.2
same,The level of expressed mRNA in the presence of chemical substance/The level of expressed mRNA in the absence of chemical substance,"yeast gene YOR248W, cultured two hours with substance",2.3
same,The level of expressed mRNA in the presence of chemical substance/The level of expressed mRNA in the absence of chemical substance,"yeast gene YOR382W, cultured two hours with substance",2.5
same,The level of expressed mRNA in the presence of chemical substance/The level of expressed mRNA in the absence of chemical substance,"yeast gene YPL052W, cultured two hours with substance",1.2
same,The level of expressed mRNA in the presence of chemical substance/The level of expressed mRNA in the absence of chemical substance,"yeast gene YPL087W, cultured two hours with substance",2.5
same,The level of expressed mRNA in the presence of chemical substance/The level of expressed mRNA in the absence of chemical substance,"yeast gene YPL171C, cultured for two hours with substance",37.0
same,The level of expressed mRNA in the presence of chemical substance/The level of expressed mRNA in the absence of chemical substance,"yeast gene YPL196W, cultured two hours with substance",1.7
same,The level of expressed mRNA in the presence of chemical substance/The level of expressed mRNA in the absence of chemical substance,"yeast gene YPL206C, cultured two hours with substance",1.5
same,The level of expressed mRNA in the presence of chemical substance/The level of expressed mRNA in the absence of chemical substance,"yeast gene YPL222W, cultured two hours with substance",1.2
same,The level of expressed mRNA in the presence of chemical substance/The level of expressed mRNA in the absence of chemical substance,"yeast gene YPR023C, cultured two hours with substance",1.7
same,The level of expressed mRNA in the presence of chemical substance/The level of expressed mRNA in the absence of chemical substance,"yeast gene YPR079W, cultured two hours with substance",0.8
same,The level of expressed mRNA in the presence of chemical substance/The level of expressed mRNA in the absence of chemical substance,"yeast gene YPR151C, cultured two hours with substance",1.4
